In ChEMBL document CHEMBL1201862, “PubChem BioAssay data set” (2004):
The source made the active and inactive calls.

Assays:
[1] = tested on: Streptococcus sp. 'group A'; assay: Streptococcus pyogenes SK(-)GAS viability under kanamycin – luminescence, BacTiterGlo, confirmation, counter-screen for streptokinase expression inhibitor project, dose response (AID 1900); type: functional, organism-based
[2] = molecular target: T1, G-protein coupled receptor 55 (Homo sapiens, UniProt Q9Y2T6); assay: blockade of LPI-induced GPR55 arrestin translocation – imaging, U2OS, beta-arrestin-GFP, LPI agonist, set 2, SAR follow-up (AID 2820); type: functional
[3] = molecular target: Peroxisome proliferator-activated receptor gamma/Nuclear receptor corepressor 2 (Homo sapiens, UniProt P37231+Q9Y618); assay: Counterscreen for NR2E3 inverse agonists: TR-FRET-based biochemical high throughput dose response assay to identify inverse agonists of the interaction between peroxisome proliferator-activated receptor gamma (PPARg) and nuclear receptor co-repressor 2 (NCOR2).; type: functional
Cannabinoid receptor 2 [4] = molecular target: T2, Cannabinoid receptor 2 (Homo sapiens, UniProt P34972); assay: SAR analysis of agonists of the Cannabinoid Receptor 2 using an Image-Based Assay. [Related pubchem assays (depositor defined):AID2013, AID2026]; type: functional
Cytochrome P450 2D6 = Cytochrome P450 2D6 (Homo sapiens, UniProt P10635);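 further: CYP2D6 member of a cytochrome P450 panel assay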
Cannabinoid receptor 2 [5] = molecular target: T2, Cannabinoid receptor 2; assay: SAR analysis of antagonists of the Cannabinoid Receptor 2 using an Image-Based Assay. [Related pubchem assays (depositor defined):AID2013, AID2026]; type: functional
Cannabinoid receptor 1 [6] = molecular target: T3, Cannabinoid receptor 1 (Homo sapiens, UniProt P21554); assay: SAR analysis of antagonists of the Cannabinoid Receptor 1 using an Image-Based Assay - Set 2. [Related pubchem assays (depositor defined):AID2013, AID2026]; type: functional
[7] = molecular target: T4, G-protein coupled receptor 35 (Homo sapiens, UniProt Q9HC97); assay: SAR analysis of Antagonists of the GPR35 Receptor using an Image-Based Assay - Set 3. [Related pubchem assays (depositor defined):AID2013, AID2026]; type: functional
Cannabinoid receptor 1 [8] = molecular target: T3, Cannabinoid receptor 1; assay: SAR analysis of agonists of the Cannabinoid Receptor 1 using an Image-Based Assay - Set 2. [Related pubchem assays (depositor defined):AID2013, AID2026]; type: functional
Cytochrome P450 3A4 = Cytochrome P450 3A4 (Homo sapiens, UniProt P08684);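 further: CYP3A4 tested as one member of a cytochrome P450 panel screen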
Streptococcus = assay: GAS UMAA2166 growth inhibition – luminescence, BacTiterGlo, counter-screen for streptokinase expression inhibitor project, dose response (AID 1915); type: functional, organism-based;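 further: potency for reduction of bacterial viability or growth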
[9] = molecular target: Photoreceptor-specific nuclear receptor (Homo sapiens, UniProt Q9Y5X4); assay: ligands suppressing NR2E3 nuclear receptor activity – biochemical, TR-FRET, dose response (AID 463256); type: functional
[10] = molecular target: T4, G-protein coupled receptor 35; assay: SAR analysis of Agonists of the GPR35 Receptor using an Image-Based Assay - Set 2. [Related pubchem assays (depositor defined):AID2013, AID2026]; type: functional
Streptokinase A = molecular target: T5, Streptokinase A (Streptococcus pyogenes serotype M1, UniProt P10520); assay: viability-normalized secreted streptokinase activity reduction – plasminogen activation absorbance, OD405, dose response (AID 1914); type: functional, Streptococcus pyogenes M1 GAS;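 further: secreted streptokinase activity via plasminogen activation per viability signal from cell pellet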
T5 sequence (P10520 whole entry): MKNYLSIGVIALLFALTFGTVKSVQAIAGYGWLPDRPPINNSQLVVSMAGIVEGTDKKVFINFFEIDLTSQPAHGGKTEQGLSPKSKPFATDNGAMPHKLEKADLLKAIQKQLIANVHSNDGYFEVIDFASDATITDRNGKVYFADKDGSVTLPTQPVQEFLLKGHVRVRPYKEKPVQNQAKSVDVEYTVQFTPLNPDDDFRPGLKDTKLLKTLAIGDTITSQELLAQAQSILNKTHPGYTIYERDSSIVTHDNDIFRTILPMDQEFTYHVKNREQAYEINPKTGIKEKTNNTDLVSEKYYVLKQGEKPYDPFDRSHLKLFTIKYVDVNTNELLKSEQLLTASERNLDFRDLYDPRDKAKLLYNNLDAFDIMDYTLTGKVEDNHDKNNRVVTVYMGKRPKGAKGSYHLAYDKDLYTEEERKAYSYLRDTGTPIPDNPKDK

[11] = molecular target: T1, G-protein coupled receptor 55; assay: inhibition of LPI-stimulated GPR55 beta-arrestin translocation – imaging, U2OS, beta-arrestin-GFP, LPI agonist, primary screen (AID 2013); type: functional;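 further: antagonist potency measured as reduced agonist-driven arrestin aggregation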
[12] = molecular target: Potassium voltage-gated channel subfamily KQT member 2 (Rattus norvegicus, UniProt O88943); assay: rat KCNQ2 current potentiators – automated patch clamp, KCNQ2-CHO cells, SAR follow-up (AID 493113); type: functional
[13] = Luminescence Cell-Based Dose Response HTS to Identify Activators of Luciferase Translation or Activity in H4 […] Cells. [Related pubchem assays: 1829 (Project Summary), 1814 (Primary HTS)]; type: functional
H4 = assay: Luminescence Cell-Based Dose Response HTS to Identify Activators of 5'UTR Stem-Loop Driven Prion Protein mRNA Translation in H4 Neuroglioblastoma Cells. [Related pubchem assays: 1829 (Project Summary), 1814 (Primary HTS)]; type: functional; conditions: Homo sapiens

T1 sequence (Q9Y2T6 whole entry): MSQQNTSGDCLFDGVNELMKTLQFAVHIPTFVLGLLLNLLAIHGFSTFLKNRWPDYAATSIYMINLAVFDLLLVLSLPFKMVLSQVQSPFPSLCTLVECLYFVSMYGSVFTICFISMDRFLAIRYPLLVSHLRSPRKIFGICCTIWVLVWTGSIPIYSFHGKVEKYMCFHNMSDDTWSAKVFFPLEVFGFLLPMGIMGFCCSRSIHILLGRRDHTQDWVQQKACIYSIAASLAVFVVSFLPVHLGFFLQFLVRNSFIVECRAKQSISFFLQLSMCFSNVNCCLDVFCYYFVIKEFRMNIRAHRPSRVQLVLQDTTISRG
T2 sequence (P34972 whole entry): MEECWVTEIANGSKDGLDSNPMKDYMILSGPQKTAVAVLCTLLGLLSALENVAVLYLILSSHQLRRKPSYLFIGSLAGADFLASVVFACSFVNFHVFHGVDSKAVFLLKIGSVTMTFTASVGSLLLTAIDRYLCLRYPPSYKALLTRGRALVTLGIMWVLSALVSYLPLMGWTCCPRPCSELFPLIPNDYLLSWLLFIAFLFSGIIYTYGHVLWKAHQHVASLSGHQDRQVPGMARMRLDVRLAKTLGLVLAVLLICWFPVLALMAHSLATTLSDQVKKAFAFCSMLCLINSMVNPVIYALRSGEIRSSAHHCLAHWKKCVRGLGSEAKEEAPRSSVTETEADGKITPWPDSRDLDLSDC
T3 sequence (P21554 whole entry): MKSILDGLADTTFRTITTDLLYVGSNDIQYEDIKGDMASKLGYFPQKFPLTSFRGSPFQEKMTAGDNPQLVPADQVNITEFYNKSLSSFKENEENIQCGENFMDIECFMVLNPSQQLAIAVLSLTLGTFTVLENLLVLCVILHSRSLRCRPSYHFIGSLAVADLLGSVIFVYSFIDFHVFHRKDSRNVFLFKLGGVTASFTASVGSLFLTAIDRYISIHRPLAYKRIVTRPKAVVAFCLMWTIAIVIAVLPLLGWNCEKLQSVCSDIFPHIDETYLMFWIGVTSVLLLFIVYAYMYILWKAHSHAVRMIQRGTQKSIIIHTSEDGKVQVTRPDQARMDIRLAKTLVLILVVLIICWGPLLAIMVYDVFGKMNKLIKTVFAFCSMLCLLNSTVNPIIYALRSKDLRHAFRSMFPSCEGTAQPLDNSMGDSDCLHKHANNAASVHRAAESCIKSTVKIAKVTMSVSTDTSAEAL
T4 sequence (Q9HC97 whole entry): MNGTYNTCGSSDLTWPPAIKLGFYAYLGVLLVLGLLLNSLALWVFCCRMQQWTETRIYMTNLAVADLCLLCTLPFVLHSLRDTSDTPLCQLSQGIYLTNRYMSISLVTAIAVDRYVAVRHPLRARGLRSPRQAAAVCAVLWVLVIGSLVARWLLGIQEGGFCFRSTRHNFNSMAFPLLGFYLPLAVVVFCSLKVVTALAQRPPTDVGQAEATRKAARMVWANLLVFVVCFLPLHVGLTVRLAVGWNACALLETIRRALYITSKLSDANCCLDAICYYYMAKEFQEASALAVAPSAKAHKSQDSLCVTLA
Potassium voltage-gated channel subfamily KQT member 2, sequence (O88943 whole entry): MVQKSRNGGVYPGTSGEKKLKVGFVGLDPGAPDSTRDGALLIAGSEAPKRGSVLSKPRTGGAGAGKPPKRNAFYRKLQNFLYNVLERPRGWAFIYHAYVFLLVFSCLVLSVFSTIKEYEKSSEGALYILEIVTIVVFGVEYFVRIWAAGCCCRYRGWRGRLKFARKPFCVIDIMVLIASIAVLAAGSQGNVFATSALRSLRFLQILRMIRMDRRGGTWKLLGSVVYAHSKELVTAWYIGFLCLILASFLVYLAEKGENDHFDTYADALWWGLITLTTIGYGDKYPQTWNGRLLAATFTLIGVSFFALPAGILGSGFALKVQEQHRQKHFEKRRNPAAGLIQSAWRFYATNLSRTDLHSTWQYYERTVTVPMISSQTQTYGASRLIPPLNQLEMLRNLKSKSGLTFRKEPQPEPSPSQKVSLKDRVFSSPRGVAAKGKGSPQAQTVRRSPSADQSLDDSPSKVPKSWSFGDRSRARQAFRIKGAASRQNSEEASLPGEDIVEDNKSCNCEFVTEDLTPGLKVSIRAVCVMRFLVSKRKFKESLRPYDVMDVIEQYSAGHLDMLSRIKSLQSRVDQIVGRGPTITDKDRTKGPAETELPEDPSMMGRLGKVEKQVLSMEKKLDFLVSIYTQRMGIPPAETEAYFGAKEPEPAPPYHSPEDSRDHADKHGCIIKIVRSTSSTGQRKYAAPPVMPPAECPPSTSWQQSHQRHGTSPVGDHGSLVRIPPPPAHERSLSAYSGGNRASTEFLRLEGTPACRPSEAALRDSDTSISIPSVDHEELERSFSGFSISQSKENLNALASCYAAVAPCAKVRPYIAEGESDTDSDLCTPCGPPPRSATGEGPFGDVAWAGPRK
Cytochrome P450 2D6, sequence (P10635 whole entry): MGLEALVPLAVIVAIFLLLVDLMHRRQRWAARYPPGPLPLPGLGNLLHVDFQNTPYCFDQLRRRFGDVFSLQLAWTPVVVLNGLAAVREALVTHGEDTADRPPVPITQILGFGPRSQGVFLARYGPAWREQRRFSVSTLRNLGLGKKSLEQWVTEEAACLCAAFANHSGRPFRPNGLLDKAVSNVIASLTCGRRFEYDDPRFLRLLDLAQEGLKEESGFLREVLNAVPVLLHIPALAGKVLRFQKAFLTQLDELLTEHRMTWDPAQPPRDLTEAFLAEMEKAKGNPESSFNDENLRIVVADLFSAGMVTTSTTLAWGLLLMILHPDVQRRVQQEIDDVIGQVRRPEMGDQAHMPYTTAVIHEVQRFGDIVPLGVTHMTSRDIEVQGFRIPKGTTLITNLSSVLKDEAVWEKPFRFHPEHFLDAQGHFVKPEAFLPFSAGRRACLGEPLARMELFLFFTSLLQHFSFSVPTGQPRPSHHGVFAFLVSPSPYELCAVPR
Photoreceptor-specific nuclear receptor, sequence (Q9Y5X4 whole entry): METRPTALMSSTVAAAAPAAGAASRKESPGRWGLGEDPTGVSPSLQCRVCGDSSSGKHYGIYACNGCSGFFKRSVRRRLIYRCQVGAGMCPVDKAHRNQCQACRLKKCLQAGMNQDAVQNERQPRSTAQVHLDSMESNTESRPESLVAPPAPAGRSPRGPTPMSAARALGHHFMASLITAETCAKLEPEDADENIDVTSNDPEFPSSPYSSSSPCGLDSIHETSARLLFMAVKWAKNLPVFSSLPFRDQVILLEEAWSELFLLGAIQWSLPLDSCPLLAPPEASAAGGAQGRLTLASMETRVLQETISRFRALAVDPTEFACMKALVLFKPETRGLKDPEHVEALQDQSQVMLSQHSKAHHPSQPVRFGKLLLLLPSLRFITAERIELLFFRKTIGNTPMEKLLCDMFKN
Cytochrome P450 3A4, sequence (P08684 whole entry): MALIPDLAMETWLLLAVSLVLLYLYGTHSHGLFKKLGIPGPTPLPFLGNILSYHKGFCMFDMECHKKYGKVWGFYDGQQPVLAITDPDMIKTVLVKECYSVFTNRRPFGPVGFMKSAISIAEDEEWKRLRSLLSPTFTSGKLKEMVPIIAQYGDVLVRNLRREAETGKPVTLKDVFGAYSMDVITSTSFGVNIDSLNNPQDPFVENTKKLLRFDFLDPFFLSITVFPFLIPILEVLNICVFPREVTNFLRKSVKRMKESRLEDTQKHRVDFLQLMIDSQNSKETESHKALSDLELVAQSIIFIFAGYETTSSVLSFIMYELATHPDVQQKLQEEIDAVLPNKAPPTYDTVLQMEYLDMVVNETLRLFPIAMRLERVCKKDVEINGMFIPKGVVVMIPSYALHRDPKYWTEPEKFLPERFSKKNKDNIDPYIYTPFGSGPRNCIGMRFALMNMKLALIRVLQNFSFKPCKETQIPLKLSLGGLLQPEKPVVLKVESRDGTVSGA

Structure (SMILES)	EC50 [1]	IC50 [2]	IC50 [3]	EC50 (Cannabinoid receptor 2 [4])	AC50 (Cytochrome P450 2D6)	IC50 (Cannabinoid receptor 2 [5])	IC50 (Cannabinoid receptor 1 [6])	IC50 [7]	EC50 (Cannabinoid receptor 1 [8])	AC50 (Cytochrome P450 3A4)	EC50 (Streptococcus)	IC50 [9]	EC50 [10]	EC50 (Streptokinase A)	IC50 [11]	EC50 [12]	EC50 [13]	EC50 (H4)
Cc1nnc(-c2cccc(Br)c2)c2cn(-c3ccc(Br)cc3)nc12	3.53 µM (active)	0.893 µM (active)	14.5 µM (not active)	> 32 µM (inactive)	12.6 µM (inconclusive)	> 32 µM (inactive)	13.9 µM (inactive)	> 32 µM (inactive)	> 32 µM (inactive)	inconclusive	28.4 µM (active)	18.8 µM (not active)	> 32 µM (inactive)	19.2 µM (active)	0.915 µM (active)	–	–	–
CC(C)c1ccc(NC(=O)C2CC3CCC2C3)cc1 (stereo not drawn)	–	–	–	–	–	–	–	–	–	–	–	–	–	–	–	0.72 µM (active)	0.432 µM (active)	65.4 µM (active)
